# Columns and labels:
# [1] = test system: S. aureus ATCC 43300 (MRSA, FQ-S); experiment: MIC, selected panel of bacterial strains (Example 5); type: cell-based, Staphylococcus aureus; details: Staphylococcus aureus, read-out: MICs against Gram positive bacteria S. aureus ATCC 43300 (MRSA, FQ-S)
# [2] = test system: GN56 Acinetobacter baumannii levofloxacin resistant clinical isolate; experiment: Chequerboard synergy with polymyxin B, FICI (Example 6); type: cell-based; details: for FICI / Synergy: combination with polymyxin B; for Combination drug concentration in combination: in combination with polymyxin B; for Polymyxin B MIC in combination: polymyxin B with the named antibiotic
# Excerpt: (§1) A chequerboard technique was used to identify possible synergistic or antagonistic interactions between the 4-oxoquinolizines compounds, levofloxacin and polymyxin B. Levofloxacin was included as a control. […] Final dilutions were made in Mueller-Hinton broth, the specific test medium used for MIC determinations according to CLSI guidelines (CLSI. Methods for Dilution Antimicrobial Susceptibility Tests for Bacteria That Grow Aerobically; Approved Standard-Eighth Edition (2009). CLSI Document M07-A8. CLSI, Wayne, Pa. 19087-1898, USA.). The test medium used was a cation-adjusted Mueller-Hinton Broth II (Becton Dickinson UK Ltd., Oxford Science Park, Oxford, UK, OX4 4DQ).
# (§2) The compounds 2, 33 and 35, as well as levofloxacin were tested in combination with polymyxin B on the following isolates: GN31 Acinetobacter baumannii—antibiotic susceptible clinical isolate, GN52 Acinetobacter baumannii—levofloxacin resistant clinical isolate, GN56 Acinetobacter baumannii—levofloxacin resistant clinical isolate, GN48 Klebsiella pneumoniae—NCTC 13443—NDM-1-metallo-β-lactamase and GN10 Pseudomonas aeruginosa—ATCC 27853—antibiotic susceptible reference isolate. All isolates are from the collection maintained at Quotient Bioresearch Ltd., Cambridge, UK.
# (§3) The MIC values for the compounds and polymyxin B and levofloxacin were determined by broth microdilution following CLSI guidelines, and the MICs of agents in combination were determined as described by Pillai et. al (Pillai S K, Moellering R C Jr, Eliopoulis G M; Antimicrobial Combinations in Antibiotics in Laboratory Medicine 5th Edition (V. Lorian Ed) (2005) p 365-440). Initial MIC results were used to determine the microtiter plate patterns for the chequerboards. A suitable doubling dilution concentration range was selected such that the combination antibiotic range was at least two concentrations above and four concentrations below the MIC for each isolate. A fixed range of 0.008 to 8 mg/L was tested for polymyxin B except in the case of A. baumannii GN31 where a range of 0.004 to 4 mg/L was tested when in combination with the compounds 2, 33 and 35 as well as levofloxacin.
# (§4) From the raw data, fractional inhibitory concentration indices (FICI) were determined for the compounds of the invention and levofloxacin together with polymyxin B for each isolate as follows:
# (§5) FICX=concentration of the combination antibiotic in a particular row MIC of the combination drug alone
# (§6) FICY=MIC of polymyxin B in combination[…]MIC of the polymyxin B alone
# (§7) Additionally isobolograms were created to represent the same data visually. Here, the MIC of polymyxin B was plotted against every concentration of the combination antibiotic up to the MIC.
# [3] = test system: GN48 Klebsiella pneumoniae NCTC 13443 NDM-1-β-lactamase producing isolate; experiment: as above; type: cell-based
# Excerpt: as §1, §2, §3, §4, §5, §6, §7
# [4] = test system: GN52 Acinetobacter baumannii levofloxacin resistant clinical isolate; experiment: as above; type: cell-based; details: for FICI / Synergy: combination with polymyxin B; for Combination drug concentration in combination: in combination with polymyxin B; for Polymyxin B MIC in combination: polymyxin B with the named antibiotic
# Excerpt: as §1, §2, §3, §4, §5, §6, §7
# [5] = test system: GN31 Acinetobacter baumannii antibiotic susceptible isolate; experiment: as above; type: cell-based
# Excerpt: as §1, §2, §3, §4, §5, §6, §7
# [6] = test system: A. baumannii A14; experiment: MIC without and with sub-inhibitory polymyxin B (Example 4); type: cell-based, Acinetobacter baumannii; details: 1st experiment
# [7] = test system: A. baumannii A401; experiment: as above; type: cell-based, Acinetobacter baumannii; details: 1st experiment
# [8] = test system: A. baumannii J2; experiment: as above; type: cell-based, Acinetobacter baumannii; details: 1st experiment
# [9] = test system: Acinetobacter sp. (H064200250); experiment: Preliminary MBC without and with sub-inhibitory polymyxin B (Example 4); type: cell-based; details: Acinetobacter, read-out: MBC +[…] PB, Acinetobacter spp. H064200250; +[…] polymyxin B; preliminary MBC; 1st experiment
# Protocol: (§8) The plates were incubated for 18-20 hours at 37° C. The MBC was read as the lowest concentration at which colony growth was ca. 90% less than the positive control (i.e. usually where single colonies or no colonies were observed).
# [10] = test system: strains of A. baumannii and one strain of Acinetobacter sp.; experiment: MIC with sub-inhibitory concentrations (0.25x MIC) of polymyxin B, panel of Acinetobacter strains (Example 4); type: cell-based; details: 1st experiment; […] polymyxin B; ATCC 19606, A329, A390 and A473 not taken
# [11] = test system: A. baumannii A14; experiment: Preliminary MBC without and with sub-inhibitory polymyxin B (Example 4); type: cell-based, Acinetobacter baumannii; details: A. baumannii A14, preliminary MBC, 1st experiment
# [12] = test system: A. baumannii NCTC 13301; experiment: as above; type: cell-based, Acinetobacter baumannii; details: Acinetobacter baumannii, NCTC13301, read-out: MBC +[…] PB
# Protocol: as §8
# [13] = test system: A. baumannii ATCC 19606; experiment: as above; type: cell-based, Acinetobacter baumannii; details: Acinetobacter baumannii, ATCC19606, read-out: MBC +0.06 μg/ml PB, A. baumannii ATCC 19606, +0.06 μg/ml polymyxin B, 1st experiment
# [14] = test system: A. baumannii A472; experiment: MIC without and with sub-inhibitory polymyxin B (Example 4); type: cell-based, Acinetobacter baumannii; details: 1st experiment
# [15] = test system: A. baumannii NCTC 13301; experiment: as above; type: cell-based, Acinetobacter baumannii
# [16] = test system: A. baumannii ATCC 19606; experiment: as above; type: cell-based, Acinetobacter baumannii; details: 1st experiment
# [17] = test system: A. baumannii A401; experiment: Preliminary MBC without and with sub-inhibitory polymyxin B (Example 4); type: cell-based, Acinetobacter baumannii; details: Acinetobacter baumannii, A401, read-out: MBC +0.06 μg/ml PB, A baumannii A 401, +0.06 μg/ml polymyxin B, 1st experiment
# [18] = test system: A. baumannii J2; experiment: as above; type: cell-based, Acinetobacter baumannii; details: Acinetobacter baumannii, J2, read-out: MBC +[…] PB, A. baumannii J2; +[…] polymyxin B; preliminary MBC; 1st experiment
# [19] = test system: A. baumannii A387; experiment: as above; type: cell-based, Acinetobacter baumannii; details: Acinetobacter baumannii, A387, read-out: MBC +0.06 μg/ml PB, A. baumannii A387, +0.06 μg/ml polymyxin B, 1st experiment
# [20] = test system: A. baumannii A387; experiment: MIC without and with sub-inhibitory polymyxin B (Example 4); type: cell-based, Acinetobacter baumannii; details: 1st experiment
# [21] = test system: Acinetobacter sp. (H064200250); experiment: as above; type: cell-based; details: 1st experiment
# [22] = test system: A. baumannii A489; experiment: as above; type: cell-based, Acinetobacter baumannii; details: 1st experiment
# [23] = test system: A. baumannii A472; experiment: Preliminary MBC without and with sub-inhibitory polymyxin B (Example 4); type: cell-based, Acinetobacter baumannii; details: Acinetobacter baumannii, A472, read-out: MBC +[…] PB, A. baumannii A472; +[…] polymyxin B; preliminary MBC; 1st experiment
# [24] = test system: A. baumannii A489; experiment: as above; type: cell-based, Acinetobacter baumannii; details: Acinetobacter baumannii, A489, read-out: MBC +[…] PB, A. baumannii A489; +[…] polymyxin B; preliminary MBC; 1st experiment
# [25] = in combination with polymyxin B
# [26] = polymyxin B with the named antibiotic
smiles,measurement,setting,value
"Cc1c(-c2ccc(N)nc2)c(F)cn2c(=O)c(C(=O)[O-])cc(C3CC3)c12.[K+] [Compound 60K salt, potassium 8-(6-aminopyridin-3-yl)-1-cyclopropyl-7-fluoro-9-methyl-4-oxo-4H-quinolizine-3-carboxylate]",MIC,[1],< 0.004 µg/mL
"Cc1c(-c2ccc3[nH]ncc3c2)ccn2c(=O)c(C(=O)O)cc(C3CC3)c12 [Compound 35, 8-(1H-indazol-5-yl)-1-cyclopropyl-9-methyl-4-oxo-quinolizine-3-carboxylic acid]",Combination drug MIC alone,[2],8 µg/mL
same,FICx,[2],0.06
same,FICy,[2],0.50
same,FICI,[2],0.56
same,Synergy,[2],Partial synergy (partial synergy/addition (FICI 0.51 to 0.75))
same,Combination drug concentration in combination,[2],0.5 mg/L
same,Polymyxin B MIC in combination,[2],0.25 µg/mL
same,FICx,[3],0.06
same,FICy,[3],0.50
same,FICI,[3]; combination with polymyxin B,0.56
same,Synergy,[3]; combination with polymyxin B,Partial synergy (partial synergy/addition (FICI 0.51 to 0.75))
same,Synergy,"[3]; combination with polymyxin B, listed as compound 35",partial synergy
same,Combination drug concentration in combination,[3]; [25],1 mg/L
same,Polymyxin B MIC in combination,[3]; [26],0.25 µg/mL
same,Combination drug MIC alone,[4],2 µg/mL
same,FICx,[4],0.25
same,FICy,[4],0.24
same,FICI,[4],0.49
same,Synergy,[4],Synergy (Synergy (FICI <0.5))
same,Combination drug concentration in combination,[4],0.5 mg/L
same,Polymyxin B MIC in combination,[4],0.12 µg/mL
same,Combination drug MIC alone,[5],0.03 µg/mL
same,FICx,[5],0.13
same,FICy,[5],0.48
same,FICI,[5]; combination with polymyxin B,0.61
same,Synergy,[5]; combination with polymyxin B,Partial synergy (partial synergy/addition (FICI 0.51 to 0.75))
same,Combination drug concentration in combination,[5]; [25],0.004 mg/L
same,Polymyxin B MIC in combination,[5]; [26],0.12 µg/mL
"Cc1c(C2=CCNCC2)c(F)cn2c(=O)c(C(=O)[O-])cc(C3CC3)c12.[K+] [Compound 62K salt, potassium 8-(1,2,3,6-tetrahydropyridin-4-yl)-1-cyclopropyl-7-fluoro-9-methyl-4-oxo-4H-quinolizine-3-carboxylate]",MIC,[1],0.125 µg/mL
"Cc1c(-c2ccc(N)c(F)c2)c(F)cn2c(=O)c(C(=O)O)cc(C3CC3)c12 [Compound 17, 8-(3-fluoro-4-amino-phenyl)-1-cyclopropyl-7-fluoro-9-methyl-4-oxo-quinolizine-3-carboxylic acid]",MIC +0.06 μg/ml PB,[6]; +0.06 μg/ml polymyxin B,1 µg/mL
same,MIC,"[6]; Acinetobacter baumannii, 24 h, without polymyxin B, read-out: MIC without PB",16 µg/mL
same,MIC without PB/MIC + PB,"[6]; ratio, PB 0.06 μg/ml",16
same,MIC without PB/MIC + PB,"[7]; A baumannii A 401, ratio, PB 0.06 μg/ml",8
same,MIC,"[7]; Acinetobacter baumannii, A401, read-out: MIC +0.06 μg/ml PB, A baumannii A 401, +0.06 μg/ml polymyxin B",0.5 µg/mL
same,MIC without PB/MIC + PB,"[8]; A. baumannii J2, ratio, PB […]",64
same,MIC,"[8]; Acinetobacter baumannii, J2, read-out: MIC +[…] PB, A. baumannii J2, +[…] polymyxin B",0.06 µg/mL
same,MBC,[9],0.06 µg/mL
same,"MIC range with PB (0.25x MIC) Oct. 1, 2008 n = 8",[10],≤0.03 to 1 µg/mL
same,MBC +0.06 μg/ml PB,[11]; +0.06 μg/ml polymyxin B,1 µg/mL
same,MBC,"[11]; Acinetobacter baumannii, without polymyxin B, read-out: MBC without PB",16 µg/mL
same,MBC,[12],≤ 0.03 µg/mL
same,MBC,[13],≤ 0.03 µg/mL
same,MIC without PB/MIC + PB,"[14]; A. baumannii A472, ratio, PB […]",≥128
same,MIC,"[14]; Acinetobacter baumannii, A472, read-out: MIC +[…] PB, A. baumannii A472, +[…] polymyxin B",≤ 0.03 µg/mL
same,MIC without PB/MIC + PB,"[15]; A. baumannii NCTC 13301, ratio, PB […], 1st experiment",≥512
same,MIC,"[15]; Acinetobacter baumannii, NCTC13301, read-out: MIC +[…] PB",≤ 0.03 µg/mL
same,MIC without PB/MIC + PB,"[16]; A. baumannii ATCC 19606, ratio, PB 0.06 μg/ml",≥16
same,MIC,"[16]; Acinetobacter baumannii, ATCC19606, read-out: MIC +0.06 μg/ml PB, A. baumannii ATCC 19606, +0.06 μg/ml polymyxin B",≤ 0.03 µg/mL
same,MBC,[17],0.5 µg/mL
same,MBC,[18],0.06 µg/mL
same,MBC,[19],≤ 0.03 µg/mL
same,MIC without PB/MIC + PB,"[20]; A. baumannii A387, ratio, PB 0.06 μg/ml",≥32
same,MIC,"[20]; Acinetobacter baumannii, A387, read-out: MIC +0.06 μg/ml PB, A. baumannii A387, +0.06 μg/ml polymyxin B",≤ 0.03 µg/mL
same,MIC without PB/MIC + PB,"[21]; Acinetobacter spp. H064200250, ratio, PB […]",128
same,MIC,"[21]; Acinetobacter, read-out: MIC +[…] PB, Acinetobacter spp. H064200250, +[…] polymyxin B",0.06 µg/mL
same,MIC without PB/MIC + PB,"[22]; A. baumannii A489, ratio, PB […]",≥256
same,MIC,"[22]; Acinetobacter baumannii, A489, read-out: MIC +[…] PB, A. baumannii A489, +[…] polymyxin B",≤ 0.03 µg/mL
same,MBC,[23],0.125 µg/mL
same,MBC,[24],≤ 0.03 µg/mL
"Cc1c(-c2ccc(N)nc2)ccn2c(=O)c(C(=O)O)cc(C3CC3)c12 [Compound 33, 8-(6-amino-3-pyridyl)-1-cyclopropyl-9-methyl-4-oxo-quinolizine-3-carboxylic acid]",Combination drug MIC alone,[2],32 µg/mL
same,FICx,[2],0.06
same,FICy,[2],0.24
same,FICI,[2],0.30
same,Synergy,[2],Synergy (Synergy (FICI <0.5))
same,Combination drug concentration in combination,[2],2 mg/L
same,Polymyxin B MIC in combination,[2],0.12 µg/mL
same,Combination drug MIC alone,[4],4 µg/mL
same,FICx,[4],0.25
same,FICy,[4],0.24
same,FICI,[4],0.49
same,Synergy,[4],Synergy (Synergy (FICI <0.5))
same,Combination drug concentration in combination,[4],1 mg/L
same,Polymyxin B MIC in combination,[4],0.12 µg/mL

# From US20190105367A1, “ANTIMICROBIAL 4-OXOQUINOLIZINES” (Emergent Product Development Gaithersburg Inc., priority 2011, published 2019)
